The test deals with A549. Nature of the test: Cytotoxicity against human A549 cells assessed as survival rate upto 170 uM by CCK8 assay relative to control. The note with it: up to 170 µM. It is filed as functional. For orientation: Tetrazolium assays rely on reduction of a dye to a coloured formazan, in cell work by metabolically active cells.

A value given as a limit tells only on which side of the number the result lay.

The values below come from ChEMBL document CHEMBL5053522, “Synthesis of 3-octadecanoxypropyl 6-deoxy-6-sulfo-α-d-glucopyranoside (ODSG) as a lipase-resistant SQAP derivative” (2021).

In the case of `CCCCCCCCCCCCCCCCCC(=O)OCCCO[C@H]1O[C@H](CS(=O)(=O)[O-])[C@@H](O)[C@H](O)[C@H]1O.[Na+]`, the Activity amounted to 70%.

`CCCCCCCCCCCCCCCCCCOCCCO[C@H]1O[C@H](CS(=O)(=O)[O-])[C@@H](O)[C@H](O)[C@H]1O.[Na+]`: the Activity was over 70%.
